Measurements reported in ChEMBL document CHEMBL4229474, “Indenone derivatives as inhibitor of human DNA dealkylation repair enzyme AlkBH3” (Bioorg Med Chem, 2018).
Activity calls are given as the source filed them. The calls are words filed in the database; no cut-off is given here.

Tests used:
[1] = target: T1, Alpha-ketoglutarate-dependent dioxygenase alkB homolog 3 (Homo sapiens, UniProt Q96Q83); assay: Inhibition of recombinant human AlkBH3 assessed as reduction in formaldehyde release using 40-mer single N3-meC as substrate incubated for 60 mins followed by substrate addition measured after 15 mins by fluorescence assay
T1 sequence (Q96Q83 whole entry): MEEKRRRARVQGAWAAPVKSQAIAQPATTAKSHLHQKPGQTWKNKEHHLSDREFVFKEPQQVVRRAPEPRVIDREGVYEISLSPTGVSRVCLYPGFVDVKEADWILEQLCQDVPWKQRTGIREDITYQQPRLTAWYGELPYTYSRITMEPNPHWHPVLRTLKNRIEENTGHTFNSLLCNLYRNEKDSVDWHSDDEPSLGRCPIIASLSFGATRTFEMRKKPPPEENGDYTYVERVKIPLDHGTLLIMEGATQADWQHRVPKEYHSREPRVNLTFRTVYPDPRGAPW

[2] = target: T2, Alpha-ketoglutarate-dependent dioxygenase alkB homolog 3 (Homo sapiens) (UniProt Q96Q83); assay: Inhibition of recombinant human AlkBH3 assessed as reduction in formaldehyde release at 50 uM using 40-mer single N3-meC as substrate incubated for 60 mins followed by substrate addition measured after 15 mins by fluorescence assay
T2 sequence (whole entry): T1 sequence (Q96Q83 whole entry)

[3] = target: T2, Alpha-ketoglutarate-dependent dioxygenase alkB homolog 3 (Homo sapiens); assay: Binding affinity to recombinant human AlkBH3 at 12 uM after 1 hr by far-UV circular dichroism spectroscopy
[4] = target: T2, Alpha-ketoglutarate-dependent dioxygenase alkB homolog 3 (Homo sapiens); assay: Binding affinity to recombinant human AlkBH3 at 12 uM after 1 hr by near-UV circular dichroism spectroscopy
[5] = target: T1, Alpha-ketoglutarate-dependent dioxygenase alkB homolog 3; assay: Binding affinity to recombinant human AlkBH3 incubated for 2 mins by isothermal titration calorimetric method
[6] = target: T2, Alpha-ketoglutarate-dependent dioxygenase alkB homolog 3 (Homo sapiens); assay: Competitive inhibition of recombinant human AlkBH3 assessed as reduction in formaldehyde release at 50 to 500 uM using 40-mer internal N3me-oligo-dC as substrate incubated for 60 mins followed by substrate addition measured after 15 mins by Lineweaver-Burk plot analysis
[7] = target: T2, Alpha-ketoglutarate-dependent dioxygenase alkB homolog 3 (Homo sapiens); assay: Mixed type inhibition of recombinant human AlkBH3 assessed as reduction in formaldehyde release at 50 to 500 uM using varying levels of 2OG as substrate incubated for 60 mins followed by substrate addition measured after 15 mins by Lineweaver-Burk plot analysis
A549 [8] = assay: Cytotoxicity against human A549 cells assessed as decrease in cell viability after 48 to 72 hrs by MTT assay; assay type: functional, cell-based
A549 [9] = assay: Cytotoxicity against human A549 cells assessed as decrease in cell viability at 1 uM after 12 to 60 mins by MTT assay; assay type: functional, cell-based
[10] = target: T2, Alpha-ketoglutarate-dependent dioxygenase alkB homolog 3 (Homo sapiens); assay: Inhibition of AlkBH3 in human A549 cells assessed as increase in MMS-induced cytotoxicity at 1 uM after 48 hrs by MTT assay; assay type: cell-based
A549 [11] = assay: Cytotoxicity against human A549 cells assessed as decrease in cell viability at 500 uM after 48 to 72 hrs by MTT assay; assay type: functional, cell-based

SMILES | IC50 [1] | further results
COc1ccc(C2=C(c3cc(OC)cc(OC)c3)C(=O)c3ccc(-c4ccc(C)cc4)cc32)cc1 | > 50 µM | 
O=C1C(c2ccccc2)=C(c2ccccc2)c2cc(-c3ccccc3)ccc21 | > 50 µM | 
Cc1ccc(C2=C(c3ccc(C)cc3)c3cc(C)ccc3C2=O)cc1 | > 50 µM | 
COc1ccc(C2=C(Br)C(=O)c3ccc(C)cc32)cc1OC | > 50 µM | 
COc1ccc(C2=C(Br)C(=O)c3ccc(C)cc32)cc1 | 43.2 µM | 
COc1ccc(C2=C(Cl)C(=O)c3ccc(-c4ccc(C)cc4)cc32)cc1 | 9.8 µM | inhibition [2]: Active; Activity [3]: Active; Activity [4]: Active; Kd [5]: 7.81 µM; inhibition [6]: Active; inhibition [7]: Active; Activity (A549 [8]): Dose-dependent effect; IC50 (A549 [8]): 18 µM; Activity (A549 [9]): Active; inhibition [10]: Active
COc1ccc(C2=C(c3ccc(OC)cc3)c3cc(C)ccc3C2=O)cc1 | > 50 µM | 
COc1ccc(C2=C(c3ccc(OC)cc3)c3cc(-c4ccccc4)ccc3C2=O)cc1 | > 50 µM | 
COc1ccc(C2=C(c3ccc(OC)c(OC)c3)c3cc(C)ccc3C2=O)cc1OC | > 50 µM | 
COc1ccc(C2=C(c3ccc(OC)c(OC)c3)c3cc(-c4ccccc4)ccc3C2=O)cc1OC | > 50 µM | 
Cc1ccc2c(c1)C(c1ccc(Cl)c(Cl)c1)=C(c1ccc(Cl)c(Cl)c1)C2=O | 32.3 µM | inhibition [2]: Active
COc1ccc(C2=C(Cl)C(=O)c3ccc(C)cc32)cc1 | > 50 µM | Activity (A549 [11]): inactive; Activity (A549 [9]): inactive; inhibition [10]: inactive
COc1cccc(C2=C(c3cccc(OC)c3)c3cc(C)ccc3C2=O)c1 | > 50 µM | 
Cc1ccc2c(c1)C(c1cccc3ccccc13)=C(Br)C2=O | > 50 µM | 
COc1cccc(C2=C(c3cccc(OC)c3)c3cc(-c4ccc(C)cc4)ccc3C2=O)c1 | 13.1 µM | inhibition [2]: Active
COc1cc(OC)cc(C2=C(Br)C(=O)c3ccc(C)cc32)c1 | > 50 µM | 
COc1ccc(C2=C(c3cc(OC)cc(OC)c3)C(=O)c3ccc(-c4ccccc4)cc32)cc1 | > 50 µM | 
Cc1ccc2c(c1)C(c1ccccc1)=C(c1ccccc1)C2=O | > 50 µM | 
Cc1ccc(C2=C(Br)C(=O)c3ccc(C)cc32)cc1 | > 50 µM | 
COc1cccc(C2=C(c3cccc(OC)c3)c3cc(-c4ccccc4)ccc3C2=O)c1 | > 50 µM | 
COc1ccc(C2=C(c3cc(OC)cc(OC)c3)C(=O)c3ccc(C)cc32)cc1 | > 50 µM | 
COc1ccc(C2=C(Cl)C(=O)c3ccc(-c4ccccc4)cc32)cc1 | > 50 µM | IC50 (A549 [8]): 370 µM; Activity (A549 [9]): inactive; inhibition [10]: inactive
COc1ccc(C2=C(c3cc(OC)cc(OC)c3)c3cc(C)ccc3C2=O)cc1 | > 50 µM | 
COc1ccc(C2=C(c3ccc(OC)c(OC)c3)c3cc(-c4ccc(C)cc4)ccc3C2=O)cc1OC | > 50 µM | 
Cc1ccc2c(c1)C(c1ccccc1)=C(Br)C2=O | > 50 µM | 
